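All cell lines were grown in 96-well plates and treated with compound for 48 hours. At the GI50, growth is halved.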 Active and inactive are the calls of the source. Rule as the data show it: active = GI50 up to about 1.1 µM and inactive = higher.
Columns and labels:
Assay in all cases: inhibition of tumour cell growth, NCI panel, 48 h
CAKI-1 = tested on: CAKI-1
LOX IMVI = tested on: LOX IMVI
Hs-578T = tested on: Hs-578T
HCT-15 = tested on: HCT-15
HCT-116 = tested on: HCT-116
RPMI-8226 = tested on: RPMI-8226
U-251 = tested on: U-251
OVCAR-5 = tested on: OVCAR-5
A549 = tested on: A549
BT-549 = tested on: BT-549
ACHN = tested on: ACHN
K562 = tested on: K562
UACC-257 = tested on: UACC-257
PC-3 = tested on: PC-3
NCI/ADR-RES = tested on: NCI/ADR-RES
SK-MEL-2 = tested on: SK-MEL-2
UO-31 = tested on: UO-31
HOP-92 = tested on: HOP-92
MOLT-4 = tested on: MOLT-4
MDA-MB-231 = tested on: MDA-MB-231

Compound | GI50 (CAKI-1) | GI50 (LOX IMVI) | GI50 (Hs-578T) | GI50 (HCT-15) [µM] | GI50 (HCT-116) | GI50 (RPMI-8226) | GI50 (U-251) | GI50 (OVCAR-5) | GI50 (A549) | GI50 (BT-549) | GI50 (ACHN) | GI50 (K562) | GI50 (UACC-257) | GI50 (PC-3) | GI50 (NCI/ADR-RES) | GI50 (SK-MEL-2) | GI50 (UO-31) | GI50 (HOP-92) | GI50 (MOLT-4) | GI50 (MDA-MB-231)
COc1ccc(/C=N/c2ccc(-c3nc4ccccc4s3)cc2)cc1OC | 31.3 µM (inactive) | 21.8 µM (inactive) | 24.5 µM (inactive) | 31.8 | 29.1 µM (inactive) | 21.7 µM (inactive) | 30.3 µM (inactive) | 36.5 µM (inactive) | 36.5 µM (inactive) | 30.5 µM (inactive) | 22.5 µM (inactive) | 27.4 µM (inactive) | 22.7 µM (inactive) | 22.6 µM (inactive) | 27.5 µM (inactive) | 22 µM (inactive) | 27.5 µM (inactive) | 22.4 µM (inactive) | 17.9 µM (inactive) | 
CNc1ccc(C)cc1S(=O)(=O)c1ccccc1[N+](=O)[O-] |  | 30.9 µM (inactive) | 55.7 µM (inactive) | 41.3 | 48.4 µM (inactive) | 49.4 µM (inactive) | 57.7 µM (inactive) | > 100 µM (inactive) | 41.3 µM (inactive) | 46.6 µM (inactive) | 30.8 µM (inactive) | 26.7 µM (inactive) |  | 28.1 µM (inactive) | 42.3 µM (inactive) | 62.4 µM (inactive) | 52.5 µM (inactive) |  | 18.4 µM (inactive) | > 100 µM (inactive)
O=C(O)c1ccccc1C(=O)NCC1S(=O)(=O)OCCOS1(=O)=O | > 100 µM (inactive) | > 100 µM (inactive) | > 100 µM (inactive) | > 100 | > 100 µM (inactive) | > 100 µM (inactive) | > 100 µM (inactive) | > 100 µM (inactive) | > 100 µM (inactive) |  | > 100 µM (inactive) | > 100 µM (inactive) | > 100 µM (inactive) | > 100 µM (inactive) | > 100 µM (inactive) | > 100 µM (inactive) | > 100 µM (inactive) | > 100 µM (inactive) | > 100 µM (inactive) | > 100 µM (inactive)
N#Cc1nc(/C=C/c2cccnc2)oc1N | > 100 µM (inactive) | > 100 µM (inactive) | > 100 µM (inactive) | > 100 | > 100 µM (inactive) | > 100 µM (inactive) | > 100 µM (inactive) | > 100 µM (inactive) | 28.4 µM (inactive) |  | > 100 µM (inactive) | > 100 µM (inactive) | > 100 µM (inactive) | > 100 µM (inactive) | > 100 µM (inactive) | > 100 µM (inactive) | > 100 µM (inactive) | > 100 µM (inactive) | > 100 µM (inactive) | > 100 µM (inactive)
CC1C(=O)C23OC[C@@]1(C)C1(O)CC[C@@H](C)[C@]21CC3=O (some centres not stated) |  | > 100 µM (inactive) | > 100 µM (inactive) | > 100 | > 100 µM (inactive) | > 100 µM (inactive) | > 100 µM (inactive) | > 100 µM (inactive) | > 100 µM (inactive) | > 100 µM (inactive) | > 100 µM (inactive) | > 100 µM (inactive) | > 100 µM (inactive) | > 100 µM (inactive) | > 100 µM (inactive) | > 100 µM (inactive) | > 100 µM (inactive) |  | > 100 µM (inactive) | > 100 µM (inactive)
NCC(=O)NC1(c2cc3ccccc3s2)CCCCC1 | > 100 µM (inactive) | 51.1 µM (inactive) | 27.7 µM (inactive) | 61.1 | 42.7 µM (inactive) | 21.8 µM (inactive) |  | 40.5 µM (inactive) | 74.1 µM (inactive) | 54.1 µM (inactive) | 23.3 µM (inactive) | 5.68 µM (inactive) | 17.4 µM (inactive) |  | 48.5 µM (inactive) |  | 45.9 µM (inactive) | 22.2 µM (inactive) |  | 
CC(=O)O/C=C1/C[C@H]2[C@@H]3CCC4CC(C(C)=O)CC[C@]4(C)[C@H]3CC[C@]2(C)C1=O (some centres not stated) | > 100 µM (inactive) | 33.3 µM (inactive) |  | 14.8 | 29.6 µM (inactive) |  | 40.6 µM (inactive) | > 100 µM (inactive) |  | > 100 µM (inactive) | > 100 µM (inactive) | 36.4 µM (inactive) | > 100 µM (inactive) | > 100 µM (inactive) |  | > 100 µM (inactive) | > 100 µM (inactive) | 41 µM (inactive) | 39.1 µM (inactive) | > 100 µM (inactive)
COc1ccc(C(Cc2ccccc2)C2NC(=S)NC2=O)cc1 (configuration not stated) | > 25 µM (inactive) | > 25 µM (inactive) | > 25 µM (inactive) | > 25 | > 25 µM (inactive) | > 25 µM (inactive) | > 25 µM (inactive) | > 25 µM (inactive) | > 25 µM (inactive) |  | > 25 µM (inactive) | > 25 µM (inactive) | > 25 µM (inactive) | > 25 µM (inactive) | > 25 µM (inactive) | > 25 µM (inactive) | > 25 µM (inactive) | > 25 µM (inactive) | > 25 µM (inactive) | > 25 µM (inactive)

— ChEMBL document CHEMBL1201862, “PubChem BioAssay data set” (2004)
